Values quoted from earlier work in PubChem BioAssay AID1259409 (Chemical Carcinogenesis Research Information System (CCRIS), 2018).

Tested on: rodent chemically induced tumor inhibition, incidence and multiplicity
Test: CCRIS tumor inhibitor studies

For `O=C1O[C@H]([C@@H](O)CO)C(O)=C1O`, the “tumour outcome (control, treated, inhibition, significance)” value (Carcinogen: DIETHYLNITROSAMINE, 55-18-5, Dose [Inhibitor]: 0, 15 G/L IN DRINKING WATER FOR DURATION OF STUDY BEGINNING 1 D PRIOR TO FIRST CARCINOGEN DOSE (STUDY DURATION: 6 MO), Route [Inhibitor]: ORAL, Species: RAT, Strain/Sex: BD6/FEMALE, Target Tissue: Type of Lesion: ESOPHAGUS: TUMOR, Dose [Carcinogen]: 80 MG/KG BW 1/WK FOR 10 WK, Promoter: NONE USED) is given as 35%, 24%, 31%, not significant, the “tumour outcome (control, treated, inhibition, significance)” value (Carcinogen: DIETHYLNITROSAMINE, 55-18-5, Dose [Inhibitor]: 0, 15 G/L IN DRINKING WATER FOR DURATION OF STUDY BEGINNING 1 D PRIOR TO FIRST CARCINOGEN DOSE (STUDY DURATION: 6 MO), Route [Inhibitor]: ORAL, Species: RAT, Strain/Sex: BD6/FEMALE, Target Tissue: Type of Lesion: LIVER: TUMOR, Dose [Carcinogen]: 80 MG/KG BW 1/WK FOR 10 WK, Promoter: NONE USED) is given as 100%, 92%, 8%, not significant and the “tumour outcome (control, treated, inhibition, significance)” value (Carcinogen: DIETHYLNITROSAMINE, 55-18-5, Dose [Inhibitor]: 0, 15 G/L IN DRINKING WATER FOR DURATION OF STUDY BEGINNING 2 D POST CARCINOGEN TREATMENT (STUDY DURATION: 6 MO), Route [Inhibitor]: ORAL, Species: RAT, Strain/Sex: BD6/FEMALE, Target Tissue: Type of Lesion: ESOPHAGUS: TUMOR, Dose [Carcinogen]: 80 MG/KG BW 1/WK FOR 10 WK, Promoter: NONE USED) is given as 35%, 28%, 20%, not significant. The “tumour outcome (control, treated, inhibition, significance)” value (Carcinogen: DIETHYLNITROSAMINE, 55-18-5, Dose [Inhibitor]: 0, 15 G/L IN DRINKING WATER FOR DURATION OF STUDY BEGINNING 2 D POST CARCINOGEN TREATMENT (STUDY DURATION: 6 MO), Route [Inhibitor]: ORAL, Species: RAT, Strain/Sex: BD6/FEMALE, Target Tissue: Type of Lesion: LIVER: TUMOR, Dose [Carcinogen]: 80 MG/KG BW 1/WK FOR 10 WK, Promoter: NONE USED) was 100%, 100%, 0%, not significant, the “tumour outcome (control, treated, inhibition, significance)” value (Carcinogen: DIETHYLSTILBESTROL, 56-53-1, Dose [Inhibitor]: 1 G/KG OR 2.5 G/KG OF DIET BEGINNING 2 D PRIOR TO FIRST CARCINOGEN IMPLANT AND CONTINUING FOR DURATION OF STUDY (STUDY D, Route [Inhibitor]: ORAL, Species: HAMSTER, Strain/Sex: SYRIAN/MALE, Target Tissue: Type of Lesion: KIDNEY: CARCINOMA, Dose [Carcinogen]: 90% OF 40 MG PELLET (OTHER 10% CHOLESTEROL) 2 D AFTER START OF AGENT TREATMENT AND AGAIN 3 MO LATER, Promoter: NONE USED) was 11/13 (85%), 14/29 (48%), 44%, p<0.05 and the “tumour outcome (control, treated, inhibition, significance)” value (Carcinogen: DIETHYNITROSAMINE, 55-18-5, Dose [Inhibitor]: 0, 3 G/L IN DRINKING WATER FOR DURATION OF STUDY BEGINNING 2 D POST CARCINOGEN TREATMENT (STUDY DURATION: 6 MO), Route [Inhibitor]: ORAL, Species: RAT, Strain/Sex: BD6/FEMALE, Target Tissue: Type of Lesion: LIVER: TUMOR, Dose [Carcinogen]: 80 MG/KG BW 1/WK FOR 10 WK, Promoter: NONE USED) was 100%, 100%, 0%, not significant. For the same compound, the “tumour outcome (control, treated, inhibition, significance)” value (Carcinogen: ETHYLUREA, 625-52-5, SODIUM NITRITE, 7632-00-0, Carcinogen: ETHYLUREA, 625-52-5, SODIUM NITRITE, 7632-00-0, Dose [Inhibitor]: 200 MG/KG BW ADMINISTERED INTRAGASTRICALLY ONCE ON D 15 OF GESTATION SIMULTANEOUSLY WITH CARCINOGEN TREATMENT (STUDY DUR, Route [Inhibitor]: TRANSPLACENTAL, Species: HAMSTER, Strain/Sex: SYRIAN/FEMALE, Target Tissue: Type of Lesion: PERIPHERAL NERVOUS SYSTEM: NEOPLASM, Dose [Carcinogen]: 200 MG ETHYLUREA/KG BW AND 100 MG SODIUM NITRITE/KG BW IG ONCE, Promoter: NONE USED) was 9/18 (50%), 0/18 (0%), 100%, not calculated, the “tumour outcome (control, treated, inhibition, significance)” value (Carcinogen: ETHYLUREA, 625-52-5, SODIUM NITRITE, 7632-00-0, Carcinogen: ETHYLUREA, 625-52-5, SODIUM NITRITE, 7632-00-0, Dose [Inhibitor]: 200 MG/KG BW ADMINISTERED INTRAGASTRICALLY ONCE ON D 15 OF GESTATION SIMULTANEOUSLY WITH CARCINOGEN TREATMENT (STUDY DUR, Route [Inhibitor]: TRANSPLACENTAL, Species: HAMSTER, Strain/Sex: SYRIAN/MALE, Target Tissue: Type of Lesion: PERIPHERAL NERVOUS SYSTEM: NEOPLASM, Dose [Carcinogen]: 200 MG ETHYLUREA/KG BW AND 100 MG SODIUM NITRITE/KG BW IG ONCE, Promoter: NONE USED) was 6/18 (33%), 0/24 (0%), 100%, not calculated and the “tumour outcome (control, treated, inhibition, significance)” value (Carcinogen: FIBERGLASS DUST, Dose [Inhibitor]: 400 MG/KG BW 1/3 D FOR 10 TREATMENTS STARTING 3 D POST CARCINOGEN TREATMENT (STUDY DURATION: 90 D), Route [Inhibitor]: INTRAPERITONEAL, Species: MOUSE, Strain/Sex: STRAIN-A/MALE, Target Tissue: Type of Lesion: LUNG: TUMOR, Dose [Carcinogen]: 300 MG IN 100 G OF STERILIZED PINE SAWDUST BEDDING FOR 30 D, Promoter: NONE USED) was 6/12 (50%), 1/12 (8%), 84%, not calculated. The “tumour outcome (control, treated, inhibition, significance)” value (Carcinogen: N,N-DIETHYLNITROSAMINE, 55-18-5, Dose [Inhibitor]: 4.5 MG/100 KG DIET FOR 58 WK STARTING SIMULTANEOUSLY WITH CARCINOGEN AND PROMOTER TREATMENT AND CONTINUING FOR DURATION, Route [Inhibitor]: ORAL, Species: HAMSTER, Strain/Sex: SYRIAN/MALE, Target Tissue: Type of Lesion: LARYNX: TUMORS, Dose [Carcinogen]: 10 MG (TOTAL DOSE) IN 0.9% SALINE 1/WK FOR 12 WK, Promoter: CIGARETTE SMOKE) was 20/30 (67%), 17/30 (57%), 15%, not significant, the “tumour outcome (control, treated, inhibition, significance)” value (Carcinogen: N,N-DIETHYLNITROSAMINE, 55-18-5, Dose [Inhibitor]: 4.5 MG/100 KG DIET FOR 58 WK STARTING SIMULTANEOUSLY WITH CARCINOGEN AND PROMOTER TREATMENT AND CONTINUING FOR DURATION, Route [Inhibitor]: ORAL, Species: HAMSTER, Strain/Sex: SYRIAN/MALE, Target Tissue: Type of Lesion: NASAL CAVITY: TUMORS, Dose [Carcinogen]: 10 MG (TOTAL DOSE) IN 0.9% SALINE 1/WK FOR 12 WK, Promoter: CIGARETTE SMOKE) was 14/29 (48%), 8/30 (27%), 44%, not significant and the “tumour outcome (control, treated, inhibition, significance)” value (Carcinogen: N,N-DIETHYLNITROSAMINE, 55-18-5, Dose [Inhibitor]: 4.5 MG/100 KG DIET FOR 58 WK STARTING SIMULTANEOUSLY WITH CARCINOGEN AND PROMOTER TREATMENT AND CONTINUING FOR DURATION, Route [Inhibitor]: ORAL, Species: HAMSTER, Strain/Sex: SYRIAN/MALE, Target Tissue: Type of Lesion: TRACHEA: TUMORS, Dose [Carcinogen]: 10 MG (TOTAL DOSE) IN 0.9% SALINE 1/WK FOR 12 WK, Promoter: CIGARETTE SMOKE) was 30/30 (100%), 29/30 (97%), 3%, not significant. The “tumour outcome (control, treated, inhibition, significance)” value (Carcinogen: N-(4-(5-NITRO-2-FURYL)-2-THIAZOLYL)FORMAMIDE, 24554-26-5, Dose [Inhibitor]: 250 MG/100 CC DRINKING WATER STARTING SIMULTANEOUSLY WITH CARCINOGEN TREATMENT AND CONTINUING FOR DURATION OF STUDY (STU, Route [Inhibitor]: ORAL, Species: MOUSE, Strain/Sex: C3H/FEMALE, Target Tissue: Type of Lesion: URINARY BLADDER: TRANSITIONAL CELL CARCINOMA, Dose [Carcinogen]: 0.1% IN DIET FOR DURATION OF STUDY, Promoter: NONE USED) was 41/41 (100%), 12/13 (92%), 8%, p<0.7.
